Data published in patent US20220273662A1, “USE OF SILDENAFIL AND ROCK INHIBITORS FOR TREATING STROKE OR SEQUELAE FOLLOWING STROKE” (SOONCHUNHYANG UNIVERSITY INDUSTRY ACADEMY COOPERATION …, priority 2019, published 2022).
Counter-ions that a name gives are not always drawn.

Key:
Type in all cases: in vivo, Sprague-Dawley male rats
[1] = tested on: MCAo30 acute stroke (cerebral infarction) model; assay: Measurement of infarction volume (TTC staining) after middle cerebral artery occlusion; details: relative to MCAo30 (100% stroke range basis); i.p. sildenafil citrate 20 mg/kg and/or GSK429286A 10 mg/kg, 30 min before or after reperfusion; combination value for both before/after groups
Method: 8-week-old Sprague-Dawley male rats weighing 260 to 280 g were used as experimental animals, and the experimental animals were obtained from the Experimental Animal Center, at Soonchunhyang University (Cheonan). All experimental animals were arbitrarily provided with commercially available feed and water under specific temperature, humidity and lighting conditions (light-dark cycle 12:12, 22±2° C., 55±5%). All animal protocols were approved by the Administrative Panel on Laboratory Animal Care of Soonchunhyang University (permit No. SCH16-0024). In performing experiments related to the present invention, all possible efforts were made to prevent the suffering of the experimental animals and to minimize the number of experimental animals used during the experiments. […] Finally, images were produced from TTC-stained coronal section brain slices using a model DP72 digital camera and DP2-BSW microscope digital camera software (Olympus, Japan), the area of ischemic brain damage in each brain slice was measured using image analysis software (ImageJ, NIH, USA). […] The volume of total cerebral infarction was the sum of the core and the ischemic penumbra, the damaged volume was calculated as an average percentage of the hemispherical volume, and the volume of edema was adjusted with reference to the results of previous studies. […]

[2] = tested on: MCAo30 acute stroke (cerebral infarction) model; assay: Open field test (locomotor activity); details: normal control = 100% (MCAo30 57.4%), combination given after reperfusion
Method: 8-week-old Sprague-Dawley male rats weighing 260 to 280 g were used as experimental animals, and the experimental animals were obtained from the Experimental Animal Center, at Soonchunhyang University (Cheonan). All experimental animals were arbitrarily provided with commercially available feed and water under specific temperature, humidity and lighting conditions (light-dark cycle 12:12, 22±2° C., 55±5%). […] In performing experiments related to the present invention, all possible efforts were made to prevent the suffering of the experimental animals and to minimize the number of experimental animals used during the experiments. […] More specifically, the following experimental drugs were each intraperitoneally administered 30 minutes before reperfusion after middle cerebral artery occlusion and 30 minutes after reperfusion after middle cerebral artery occlusion. i) sildenafil citrate (20 mg/kg/saline, Hanmi Parm. […] An open field black box (60×60×40 cm; length, width, height) was placed in an isolated room without clues, and the experimental animals were placed in the central area of the open field box under diffused light. The distance traveled by the experimental animals was recorded and analyzed for 30 minutes using Ethovision® software, which is a PC-based video motion analysis system. […]

[3] = tested on: MCAo30 acute stroke (cerebral infarction) model; assay: Light-dark box test (anxiety level); details: normal control = 100% (MCAo30 62.08%), combination given after reperfusion
Method: 8-week-old Sprague-Dawley male rats weighing 260 to 280 g were used as experimental animals, and the experimental animals were obtained from the Experimental Animal Center, at Soonchunhyang University (Cheonan). All experimental animals were arbitrarily provided with commercially available feed and water under specific temperature, humidity and lighting conditions (light-dark cycle 12:12, 22±2° C., 55±5%). All animal protocols were approved by the Administrative Panel on Laboratory Animal Care of Soonchunhyang University (permit No. SCH16-0024). […] More specifically, the following experimental drugs were each intraperitoneally administered 30 minutes before reperfusion after middle cerebral artery occlusion and 30 minutes after reperfusion after middle cerebral artery occlusion. i) sildenafil citrate (20 mg/kg/saline, Hanmi Parm. Co., Republic of Korea) ii) GSK429286A (10 mg/kg/DMSO, Sigma, USA) iii) sildenafil citrate (20 mg/kg/saline) and GSK429286A (10 mg/kg/DMSO) A light-dark box (45×27×27 cm; length, width, height) was divided into two compartments, and more specifically, three-fifths was a bright compartment and two-fifths was a dark compartment. Each compartment was connected by a 9×9 cm entrance located on the floor. […] Here, sildenafil and the ROCK inhibitor were co-administered after reperfusion after middle cerebral artery occlusion.

[4] = tested on: MCAo30 acute stroke (cerebral infarction) model; assay: Barnes maze test (cognitive function, escape time); details: compared to normal control, MCAo30 about 3-fold longer than normal control
Method: All experimental animals were arbitrarily provided with commercially available feed and water under specific temperature, humidity and lighting conditions (light-dark cycle 12:12, 22±2° C., 55±5%). […] Co., Republic of Korea) ii) GSK429286A (10 mg/kg/DMSO, Sigma, USA) iii) sildenafil citrate (20 mg/kg/saline) and GSK429286A (10 mg/kg/DMSO) A Barnes maze consisted of a circular platform (122 cm in diameter) with 20 holes around the same distance and elevated 105 cm from the floor. Four different visual cues were placed on each quadrant wall surrounding the platform at a height that makes it easy to observe experimental animals, and one hole (escape hole) in the quadrant area includes an escape chamber under the platform. Further, bedding was added to the escape chamber for the safety of experimental animals. […] More specifically, a metronome was used to generate 80 Hz noise and to maintain the illuminance measured at the center of the platform at 300 lux. […] 10 seconds later, when the cylinder was removed, the experimental animal explored the platform from the center and this activity was recorded by a video camera. […] The distance and duration traveled from the quadrant area where the escape chamber connected to the escape hole is located was analyzed by Ethovision® software, and the waiting time to reach the escape chamber connected to the escape hole was manually analyzed.

[5] = tested on: MCAo30 acute stroke (cerebral infarction) model; assay: Measurement of fEPSP slope (synaptic plasticity, hippocampal CA1 LTP); details: for fEPSP slope: MCAo30 84.11%
Method: 8-week-old Sprague-Dawley male rats weighing 260 to 280 g were used as experimental animals, and the experimental animals were obtained from the Experimental Animal Center, at Soonchunhyang University (Cheonan). All experimental animals were arbitrarily provided with commercially available feed and water under specific temperature, humidity and lighting conditions (light-dark cycle 12:12, 22±2° C., 55±5%). […] More specifically, the following experimental drugs were each intraperitoneally administered 30 minutes before reperfusion after middle cerebral artery occlusion and 30 minutes after reperfusion after middle cerebral artery occlusion. i) sildenafil citrate (20 mg/kg/saline, Hanmi Parm. Co., Republic of Korea) ii) GSK429286A (10 mg/kg/DMSO, Sigma, USA) iii) sildenafil citrate (20 mg/kg/saline) and GSK429286A (10 mg/kg/DMSO) Field potentials (fEPSP) were recorded at a slightly modified part from CA1 of the hippocampus. After a behavioral test, the animals were anesthetized intraperitoneally using urethane (1.5 g/kg) and placed in a stereotaxic frame. The rectal temperature during surgery was maintained at 37±0.3° C. using a temperature controller (Harvard Instruments, USA). Next, the scalp was opened and separated, and a hole was made through the skull to introduce electrodes. The coordinates (in mm) based on bregma (a junction of the coronal suture and the sagittal suture in the skull) are as follows. […] The depth of the electrodes was finally determined by observing whether the induced response was optimized. The fEPSP was adjusted to about 60% of the maximum response size for testing, and stimuli were generated by a BNC-2110 apparatus (National Instruments, USA) and a Digital Stimulus Isolation unit (Getting Instruments, CA, USA). The response of pyramidal neurons to the Schaffer collateral stimulus was recorded using a [MUT].C. pre-amplifier (3-1000 Hz bandpass, Astro-Med Inc.) and analyzed using […] . […] A stable baseline was recorded for 30 minutes to 60 minutes. […] The response of fEPSP for the age-matched control was also measured using the same method.

| SMILES | damage to brain tissue after the onset of stroke (infarction volume) [1] | locomotor activity [2] | time in which rats stayed in a bright place compared to the normal control [3] | escape time (in words) [4] | fEPSP slope ([5]; administered after reperfusion after middle cerebral artery occlusion) | fEPSP slope ([5]; administered before reperfusion after middle cerebral artery occlusion) | fold improved fEPSP slope, group after reperfusion compared to group before reperfusion ([5]; sildenafil alone, after vs before reperfusion) |
| --- | --- | --- | --- | --- | --- | --- | --- |
| CC1=C(C(=O)Nc2cc3cn[nH]c3cc2F)C(c2ccc(C(F)(F)F)cc2)CC(=O)N1 (stereo not shown) [ROCK inhibitor, N-(6-fluoro-1H-indazol-5-yl)-6-methyl-2-oxo-4-[4-(trifluoromethyl)phenyl]-3,4-dihydro-1H-pyridine-5-carboxamide] | 21.28% | 71% | 84.26% | level similar to that of the normal control |  |  |  |
| CCCc1nn(C)c2c(=O)[nH]c(-c3cc(S(=O)(=O)N4CCN(C)CC4)ccc3OCC)nc12 [sildenafil, sildenafil citrate] | 26.71% | 70.8% | 63.63% |  | 158.31% | 102.35% | about 4.06 fold |
